According to paper PMC11062899, “De novo development of small cyclic peptides that are orally bioavailable” (Nature Chemical Biology, 2023):

Target: human α-thrombin (Homo sapiens, UniProt P00734)
Assay: Sub-library screen for active and permeable cyclic peptides (PAMPA plus thrombin inhibition)
Assay type: biochemical
Settings: crude, slopes normalized to DMSO; for Residual thrombin activity: Top sample: PAMPA acceptor well after 14 h, 5 μM donor; for Residual thrombin activity: Equilibrated sample: donor sample diluted to theoretical equilibrium (1 μM in assay)
In short: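 Acylated cyclic peptides at 5 μM in PBS pH 7.4 with 5% DMSO were run through PAMPA for 14 h at room temperature. Acceptor wells and a diluted donor sample at 3 μM, representing maximum permeability, were preincubated 10 min with human α-thrombin (6 nM stock). Z-Gly-Gly-Arg-AMC (150 μM stock) fluorescence was then read for 30 min at 25 °C, and inhibition was taken against a no-peptide control.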

Residual thrombin activity: Top sample | Residual thrombin activity: Equilibrated sample | SMILES
98.4 | 104.3 | O=C1C[C@H]2CCCN2C(=O)[C@@H](Cc2ccccc2)NC(=O)[C@@H](NC(=O)c2ccc(Cl)s2)CCSC/C=C/CSCCN1 [C2-X31-L4]
105.0 | 96.6 | O=C1C[C@H]2CCCN2C(=O)[C@@H](Cc2ccccc2)NC(=O)[C@@H](NC(=O)c2ccc(Cl)s2)CCSCc2cccc(c2)CSCCN1 [C2-X31-L5]
92.4 | 88.8 | O=C1C[C@H]2CCCN2C(=O)[C@@H](Cc2ccccc2)NC(=O)[C@@H](NC(=O)c2ccc(Cl)s2)CCSCc2ccccc2CSCCN1 [C2-X31-L6]
102.6 | 101.7 | O=C1CSCCNC(=O)C[C@H]2CCCN2C(=O)[C@@H](Cc2ccccc2)NC(=O)[C@@H](NC(=O)c2ccc(Cl)s2)CCSC1 [C2-X31-L7]
92.7 | 101.7 | CN1C(=O)[C@@H](NC(=O)c2ccc(Cl)s2)CCSCc2cccc(n2)CSCCNC(=O)C[C@H]2CCCN2C(=O)[C@@H]1Cc1ccccc1 [C2-X32-L1]
93.7 | 100.8 | CN1C(=O)[C@@H](NC(=O)c2ccc(Cl)s2)CCSCCS(=O)(=O)CCSCCNC(=O)C[C@H]2CCCN2C(=O)[C@@H]1Cc1ccccc1 [C2-X32-L2]
97.8 | 96.9 | CN1C(=O)[C@@H](NC(=O)c2ccc(Cl)s2)CCSCc2ccc(cc2)CSCCNC(=O)C[C@H]2CCCN2C(=O)[C@@H]1Cc1ccccc1 [C2-X32-L3]
99.0 | 101.4 | CN1C(=O)[C@@H](NC(=O)c2ccc(Cl)s2)CCSC/C=C/CSCCNC(=O)C[C@H]2CCCN2C(=O)[C@@H]1Cc1ccccc1 [C2-X32-L4]
104.7 | 100.8 | CN1C(=O)[C@@H](NC(=O)c2ccc(Cl)s2)CCSCc2cccc(c2)CSCCNC(=O)C[C@H]2CCCN2C(=O)[C@@H]1Cc1ccccc1 [C2-X32-L5]
94.2 | 95.9 | CN1C(=O)[C@@H](NC(=O)c2ccc(Cl)s2)CCSCc2ccccc2CSCCNC(=O)C[C@H]2CCCN2C(=O)[C@@H]1Cc1ccccc1 [C2-X32-L6]
101.9 | 101.7 | CN1C(=O)[C@@H](NC(=O)c2ccc(Cl)s2)CCSCC(=O)CSCCNC(=O)C[C@H]2CCCN2C(=O)[C@@H]1Cc1ccccc1 [C2-X32-L7]
95.4 | 94.0 | COc1ccc(C[C@@H]2NC(=O)[C@@H](NC(=O)c3ccc(Cl)s3)CCSCc3cccc(n3)CSCCNC(=O)C[C@H]3CCCN3C2=O)cc1 [C2-X33-L1]
98.8 | 98.9 | COc1ccc(C[C@@H]2NC(=O)[C@@H](NC(=O)c3ccc(Cl)s3)CCSCCS(=O)(=O)CCSCCNC(=O)C[C@H]3CCCN3C2=O)cc1 [C2-X33-L2]
100.8 | 99.6 | COc1ccc(C[C@@H]2NC(=O)[C@@H](NC(=O)c3ccc(Cl)s3)CCSCc3ccc(cc3)CSCCNC(=O)C[C@H]3CCCN3C2=O)cc1 [C2-X33-L3]
100.6 | 93.7 | COc1ccc(C[C@@H]2NC(=O)[C@@H](NC(=O)c3ccc(Cl)s3)CCSC/C=C/CSCCNC(=O)C[C@H]3CCCN3C2=O)cc1 [C2-X33-L4]
104.9 | 49.9 | COc1ccc(C[C@@H]2NC(=O)[C@@H](NC(=O)c3ccc(Cl)s3)CCSCc3cccc(c3)CSCCNC(=O)C[C@H]3CCCN3C2=O)cc1 [C2-X33-L5]
92.7 | 95.5 | COc1ccc(C[C@@H]2NC(=O)[C@@H](NC(=O)c3ccc(Cl)s3)CCSCc3ccccc3CSCCNC(=O)C[C@H]3CCCN3C2=O)cc1 [C2-X33-L6]
102.7 | 99.9 | COc1ccc(C[C@@H]2NC(=O)[C@@H](NC(=O)c3ccc(Cl)s3)CCSCC(=O)CSCCNC(=O)C[C@H]3CCCN3C2=O)cc1 [C2-X33-L7]
87.1 | 93.9 | O=C1C[C@H]2CCCN2C(=O)[C@H](Cc2ccc(Cl)cc2)NC(=O)[C@@H](NC(=O)c2ccc(Cl)s2)CCSCc2cccc(n2)CSCCN1 [C2-X34-L1]
99.3 | 99.5 | O=C1C[C@H]2CCCN2C(=O)[C@H](Cc2ccc(Cl)cc2)NC(=O)[C@@H](NC(=O)c2ccc(Cl)s2)CCSCCS(=O)(=O)CCSCCN1 [C2-X34-L2]

Residual thrombin activity: Top sample | Residual thrombin activity: Equilibrated sample | SMILES
99.4 | 99.1 | O=C1C[C@H]2CCCN2C(=O)[C@H](Cc2ccc(Cl)cc2)NC(=O)[C@@H](NC(=O)c2ccc(Cl)s2)CCSCc2ccc(cc2)CSCCN1 [C2-X34-L3]
98.6 | 98.5 | O=C1C[C@H]2CCCN2C(=O)[C@H](Cc2ccc(Cl)cc2)NC(=O)[C@@H](NC(=O)c2ccc(Cl)s2)CCSC/C=C/CSCCN1 [C2-X34-L4]
106.3 | 106.4 | O=C1C[C@H]2CCCN2C(=O)[C@H](Cc2ccc(Cl)cc2)NC(=O)[C@@H](NC(=O)c2ccc(Cl)s2)CCSCc2cccc(c2)CSCCN1 [C2-X34-L5]
93.6 | 95.7 | O=C1C[C@H]2CCCN2C(=O)[C@H](Cc2ccc(Cl)cc2)NC(=O)[C@@H](NC(=O)c2ccc(Cl)s2)CCSCc2ccccc2CSCCN1 [C2-X34-L6]
104.6 | 101.4 | O=C1CSCCNC(=O)C[C@H]2CCCN2C(=O)[C@H](Cc2ccc(Cl)cc2)NC(=O)[C@@H](NC(=O)c2ccc(Cl)s2)CCSC1 [C2-X34-L7]
95.8 | 96.1 | N#Cc1ccc(C[C@@H]2NC(=O)[C@@H](NC(=O)c3ccc(Cl)s3)CCSCc3cccc(n3)CSCCNC(=O)C[C@H]3CCCN3C2=O)cc1 [C2-X35-L1]
102.9 | 100.1 | N#Cc1ccc(C[C@@H]2NC(=O)[C@@H](NC(=O)c3ccc(Cl)s3)CCSCCS(=O)(=O)CCSCCNC(=O)C[C@H]3CCCN3C2=O)cc1 [C2-X35-L2]
101.8 | 100.4 | N#Cc1ccc(C[C@@H]2NC(=O)[C@@H](NC(=O)c3ccc(Cl)s3)CCSCc3ccc(cc3)CSCCNC(=O)C[C@H]3CCCN3C2=O)cc1 [C2-X35-L3]
100.5 | 100.3 | N#Cc1ccc(C[C@@H]2NC(=O)[C@@H](NC(=O)c3ccc(Cl)s3)CCSC/C=C/CSCCNC(=O)C[C@H]3CCCN3C2=O)cc1 [C2-X35-L4]
106.2 | 101.3 | N#Cc1ccc(C[C@@H]2NC(=O)[C@@H](NC(=O)c3ccc(Cl)s3)CCSCc3cccc(c3)CSCCNC(=O)C[C@H]3CCCN3C2=O)cc1 [C2-X35-L5]
90.0 | 91.7 | N#Cc1ccc(C[C@@H]2NC(=O)[C@@H](NC(=O)c3ccc(Cl)s3)CCSCc3ccccc3CSCCNC(=O)C[C@H]3CCCN3C2=O)cc1 [C2-X35-L6]
103.0 | 104.7 | N#Cc1ccc(C[C@@H]2NC(=O)[C@@H](NC(=O)c3ccc(Cl)s3)CCSCC(=O)CSCCNC(=O)C[C@H]3CCCN3C2=O)cc1 [C2-X35-L7]
95.5 | 97.7 | O=C1C[C@H]2CCCN2C(=O)[C@H](Cc2ccc(C(F)(F)F)cc2)NC(=O)[C@@H](NC(=O)c2ccc(Cl)s2)CCSCc2cccc(n2)CSCCN1 [C2-X36-L1]
101.5 | 101.8 | O=C1C[C@H]2CCCN2C(=O)[C@H](Cc2ccc(C(F)(F)F)cc2)NC(=O)[C@@H](NC(=O)c2ccc(Cl)s2)CCSCCS(=O)(=O)CCSCCN1 [C2-X36-L2]
95.8 | 101.3 | O=C1C[C@H]2CCCN2C(=O)[C@H](Cc2ccc(C(F)(F)F)cc2)NC(=O)[C@@H](NC(=O)c2ccc(Cl)s2)CCSCc2ccc(cc2)CSCCN1 [C2-X36-L3]
103.3 | 101.3 | O=C1C[C@H]2CCCN2C(=O)[C@H](Cc2ccc(C(F)(F)F)cc2)NC(=O)[C@@H](NC(=O)c2ccc(Cl)s2)CCSC/C=C/CSCCN1 [C2-X36-L4]
106.2 | 106.1 | O=C1C[C@H]2CCCN2C(=O)[C@H](Cc2ccc(C(F)(F)F)cc2)NC(=O)[C@@H](NC(=O)c2ccc(Cl)s2)CCSCc2cccc(c2)CSCCN1 [C2-X36-L5]
96.8 | 97.9 | O=C1C[C@H]2CCCN2C(=O)[C@H](Cc2ccc(C(F)(F)F)cc2)NC(=O)[C@@H](NC(=O)c2ccc(Cl)s2)CCSCc2ccccc2CSCCN1 [C2-X36-L6]
102.7 | 104.5 | O=C1CSCCNC(=O)C[C@H]2CCCN2C(=O)[C@H](Cc2ccc(C(F)(F)F)cc2)NC(=O)[C@@H](NC(=O)c2ccc(Cl)s2)CCSC1 [C2-X36-L7]
88.2 | 83.3 | Cc1cccc(C[C@@H]2NC(=O)[C@@H](NC(=O)c3ccc(Cl)s3)CCSCc3cccc(n3)CSCCNC(=O)C[C@H]3CCCN3C2=O)c1 [C2-X37-L1]
